Experimental data: paper PMC11796312, “Multifunctional, Fluorene‐Based Modulator of Cholinergic and GABAergic Neurotransmission as a Novel Drug Candidate for Palliative Treatment of Alzheimer's Disease” (Angewandte Chemie (International Ed. in English), 2024)

Columns and labels:
mGAT2 = molecular target: T1, mGAT2 (Mus musculus, UniProt P31651); experiment: [3H]GABA uptake assay, mGAT2; format: cell-based; conditions: GABA uptake assay; read-out: mGAT2 IC50
T1 sequence (P31651 1-614): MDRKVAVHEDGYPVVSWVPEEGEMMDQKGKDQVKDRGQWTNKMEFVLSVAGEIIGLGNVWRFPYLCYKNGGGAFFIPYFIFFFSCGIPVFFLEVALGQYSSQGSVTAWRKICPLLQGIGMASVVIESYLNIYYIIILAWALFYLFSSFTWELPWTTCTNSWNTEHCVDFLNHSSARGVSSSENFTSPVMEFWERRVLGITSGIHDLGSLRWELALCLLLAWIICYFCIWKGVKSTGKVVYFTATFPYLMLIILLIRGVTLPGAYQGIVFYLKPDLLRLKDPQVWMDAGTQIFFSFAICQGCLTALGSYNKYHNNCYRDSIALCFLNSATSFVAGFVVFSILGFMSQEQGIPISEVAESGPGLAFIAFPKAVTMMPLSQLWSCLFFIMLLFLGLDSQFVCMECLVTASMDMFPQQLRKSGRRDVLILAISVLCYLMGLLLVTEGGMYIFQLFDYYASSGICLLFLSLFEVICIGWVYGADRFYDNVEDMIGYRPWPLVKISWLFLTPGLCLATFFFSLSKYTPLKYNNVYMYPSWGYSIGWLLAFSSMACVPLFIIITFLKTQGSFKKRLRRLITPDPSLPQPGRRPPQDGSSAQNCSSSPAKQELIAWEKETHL

eqBuChE = molecular target: T2, eqBuChE (Equus caballus, UniProt P81908); experiment: biochemical; conditions: means±SEM of at least three experiments
T2 construct: purchased Sigma-Aldrich

eeAChE = molecular target: T3, eeAChE (Electrophorus electricus, UniProt O42275); experiment: Cholinesterase inhibition, Ellman's protocol, eeAChE; format: biochemical; conditions: read-out: eeAChE % inh.
T3 construct: purchased Sigma-Aldrich
Protocol: In vitro pharmacological assays.
The in vitro inhibitory activity toward cholinesterases (eeAChE, eqBuChE,
The target compounds were tested for their inhibitory potency against cholinesterases using
Ellman’s protocol[32] modified for 96-well microplates.
The stock solutions of the
target compounds were prepared in DMSO and diluted with water, giving the desired final
concentrations. The enzymes were prepared as 5 U/mL aqueous stock solutions and diluted
(AChE or BuChE) were added to the reaction mixture in the wells, containing 25 μL of the
target compound (in case of blank samples – water or water/DMSO mixture), 200 μL of 0.1
M phosphate buffer (pH = 8.0) and 20 μL of 5,5'-dithiobis-(2-nitrobenzoic acid) DTNB
All those reagents were preincubated for 5 min at 25 °C for the reactions with the
animal enzymes (eeAChE or eqBuChe) and 36 °C for the human enzyme ( hBuChE) tests. The
enzymatic reaction was initiated by the addition of 20 μL of substrate acetylthiocholine iodide
using the EnSpire multimode microplate reader (PerkinElmer, Waltham, MA, USA). Target
compounds were tested at the screening concentrations of 10 μM or 1 µM for inhibitory
potencies towards animal cholinesterases or human enzyme, respectively. Percent of enzyme
inhibition was calculated based on the formula 100 -(S/B)x100, where S and B were the
respective enzyme activities with and without the test compound, respectively. Compounds
with the enzyme inhibitory activities at 10 μM better than 50% ( eeAChE or eqBuChe) and at
were based on the absorbance measured at seven different inhibitor concentrations, then
percentages of enzymes’ inhibition were plotted against the applied inhibitor concentrations
using nonlinear regression (GraphPad Prism 9; GraphPad Software, San Diego, CA, USA).
All the experiments were performed in
a %inh. at an inhibitor concentration of 10 µM

mGAT3 = molecular target: T4, mGAT3 (Mus musculus, UniProt P31649); experiment: [3H]GABA uptake assay, mGAT3; format: cell-based; conditions: GABA uptake assay; read-out: mGAT3 IC50
T4 sequence (P31649 1-602): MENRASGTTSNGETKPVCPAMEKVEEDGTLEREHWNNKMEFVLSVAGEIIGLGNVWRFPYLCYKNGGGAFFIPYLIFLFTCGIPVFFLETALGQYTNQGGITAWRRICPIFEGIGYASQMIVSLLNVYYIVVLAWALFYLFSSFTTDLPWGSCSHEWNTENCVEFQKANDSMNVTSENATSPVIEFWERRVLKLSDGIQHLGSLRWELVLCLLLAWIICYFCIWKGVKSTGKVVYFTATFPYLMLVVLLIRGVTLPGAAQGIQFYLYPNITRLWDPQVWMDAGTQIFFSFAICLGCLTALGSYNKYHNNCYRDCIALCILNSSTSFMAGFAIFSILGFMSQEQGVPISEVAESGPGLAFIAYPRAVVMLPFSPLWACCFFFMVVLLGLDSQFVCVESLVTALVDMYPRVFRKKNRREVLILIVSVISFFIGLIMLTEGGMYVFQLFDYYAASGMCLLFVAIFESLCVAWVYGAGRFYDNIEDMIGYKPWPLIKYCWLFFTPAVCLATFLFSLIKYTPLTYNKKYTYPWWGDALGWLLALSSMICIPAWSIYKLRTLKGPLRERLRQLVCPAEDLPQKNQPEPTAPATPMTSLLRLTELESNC

[1] = molecular target: T5, human butyrylcholinesterase (hBuChE) (Homo sapiens, UniProt P06276); experiment: biochemical; conditions: for IC50: means±SEM of at least three experiments
T5 construct: from human plasma was from Vivonics (Bedford, MA, USA); purchased Vivonics (Bedford, MA, USA); host or cells: human plasma

mGAT1 [2] = molecular target: T6, mGAT1 (Mus musculus, UniProt P31648); experiment: MS Binding Assay with NO 711 as marker; conditions: MS Binding Assay, NO 711 marker; read-out: pKi ± SEM toward mGAT1 (converted)
mGAT1 [3] = molecular target: T6, mGAT1; experiment: [3H]GABA uptake assay, mGAT1; format: cell-based; conditions: GABA uptake assay; read-out: mGAT1 IC50
mGAT4 = molecular target: T7, mGAT4 (Mus musculus, UniProt P31650); experiment: [3H]GABA uptake assay, mGAT4; format: cell-based; conditions: GABA uptake assay; mGAT4 corresponds to GAT3; read-out: mGAT4 IC50
T7 sequence (P31650 1-627): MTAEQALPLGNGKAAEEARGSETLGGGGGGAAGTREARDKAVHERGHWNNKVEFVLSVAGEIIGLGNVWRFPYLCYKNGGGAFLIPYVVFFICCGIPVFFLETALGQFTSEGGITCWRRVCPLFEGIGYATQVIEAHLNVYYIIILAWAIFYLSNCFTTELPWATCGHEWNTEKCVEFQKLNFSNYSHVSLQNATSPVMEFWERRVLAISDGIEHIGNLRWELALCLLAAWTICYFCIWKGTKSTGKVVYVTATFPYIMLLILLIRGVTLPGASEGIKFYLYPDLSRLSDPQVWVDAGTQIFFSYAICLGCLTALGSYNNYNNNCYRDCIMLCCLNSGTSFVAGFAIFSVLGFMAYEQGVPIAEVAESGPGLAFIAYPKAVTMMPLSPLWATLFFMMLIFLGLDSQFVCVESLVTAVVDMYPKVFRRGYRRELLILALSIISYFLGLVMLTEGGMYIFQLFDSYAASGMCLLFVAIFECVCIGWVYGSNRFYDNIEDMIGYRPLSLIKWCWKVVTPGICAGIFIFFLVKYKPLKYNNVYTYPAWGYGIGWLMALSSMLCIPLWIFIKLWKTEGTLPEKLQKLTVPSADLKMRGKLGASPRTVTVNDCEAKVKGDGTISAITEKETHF

T2 sequence (P81908 whole entry): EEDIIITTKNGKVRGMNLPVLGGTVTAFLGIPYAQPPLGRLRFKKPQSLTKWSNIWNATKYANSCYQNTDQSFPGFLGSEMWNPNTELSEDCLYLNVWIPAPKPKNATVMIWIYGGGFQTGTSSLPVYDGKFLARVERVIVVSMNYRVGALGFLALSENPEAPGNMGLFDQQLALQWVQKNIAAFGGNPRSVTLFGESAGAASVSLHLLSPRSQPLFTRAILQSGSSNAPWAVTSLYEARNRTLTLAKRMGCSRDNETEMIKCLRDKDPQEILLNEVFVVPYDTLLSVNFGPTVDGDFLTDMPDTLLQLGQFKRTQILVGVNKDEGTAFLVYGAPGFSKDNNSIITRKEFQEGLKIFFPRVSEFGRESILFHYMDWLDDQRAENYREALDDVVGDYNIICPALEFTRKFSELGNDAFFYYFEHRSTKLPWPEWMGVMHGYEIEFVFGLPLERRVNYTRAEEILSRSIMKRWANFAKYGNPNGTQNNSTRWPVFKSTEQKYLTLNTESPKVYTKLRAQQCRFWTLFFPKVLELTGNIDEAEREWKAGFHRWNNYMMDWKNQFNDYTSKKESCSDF
T5 sequence (P06276 29-602): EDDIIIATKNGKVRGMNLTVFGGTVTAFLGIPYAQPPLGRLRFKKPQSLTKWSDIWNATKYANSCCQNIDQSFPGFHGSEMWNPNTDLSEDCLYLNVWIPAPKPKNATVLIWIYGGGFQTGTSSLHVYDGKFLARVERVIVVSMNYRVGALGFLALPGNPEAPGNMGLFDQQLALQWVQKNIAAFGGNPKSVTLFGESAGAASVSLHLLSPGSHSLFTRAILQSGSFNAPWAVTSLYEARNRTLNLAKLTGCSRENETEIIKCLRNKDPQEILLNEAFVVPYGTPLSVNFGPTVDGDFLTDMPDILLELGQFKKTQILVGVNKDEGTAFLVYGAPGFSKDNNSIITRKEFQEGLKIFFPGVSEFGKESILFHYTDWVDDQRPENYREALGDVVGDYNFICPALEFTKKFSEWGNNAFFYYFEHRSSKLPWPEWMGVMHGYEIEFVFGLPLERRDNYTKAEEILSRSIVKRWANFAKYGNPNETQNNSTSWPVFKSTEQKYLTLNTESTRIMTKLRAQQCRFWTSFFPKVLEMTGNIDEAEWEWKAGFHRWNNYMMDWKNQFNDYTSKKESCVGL
T3 sequence (O42275 24-633): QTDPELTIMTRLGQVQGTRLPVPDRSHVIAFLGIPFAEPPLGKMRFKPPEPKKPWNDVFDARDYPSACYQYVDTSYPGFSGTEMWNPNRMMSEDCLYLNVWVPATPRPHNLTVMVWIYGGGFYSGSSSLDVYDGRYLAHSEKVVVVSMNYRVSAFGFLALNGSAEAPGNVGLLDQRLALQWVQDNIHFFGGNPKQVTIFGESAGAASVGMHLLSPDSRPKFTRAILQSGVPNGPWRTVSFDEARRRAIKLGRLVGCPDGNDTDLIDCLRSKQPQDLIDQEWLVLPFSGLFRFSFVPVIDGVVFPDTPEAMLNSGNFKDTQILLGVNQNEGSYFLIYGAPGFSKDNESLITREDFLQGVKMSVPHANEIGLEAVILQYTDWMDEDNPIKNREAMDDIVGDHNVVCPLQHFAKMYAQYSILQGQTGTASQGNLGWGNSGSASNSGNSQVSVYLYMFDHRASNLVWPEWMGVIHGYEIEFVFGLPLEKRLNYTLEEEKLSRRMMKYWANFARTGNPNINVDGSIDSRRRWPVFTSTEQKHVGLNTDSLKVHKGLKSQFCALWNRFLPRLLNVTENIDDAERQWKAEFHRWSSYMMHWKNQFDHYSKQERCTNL

Compound	IC50 (mGAT2) [µM]	IC50 (eqBuChE) [µM]	inhibition at 10 µM (eeAChE) [%]	IC50 (mGAT3) [µM]	IC50 [1] [µM]	Ki (mGAT1 [2]) [µM]	IC50 (mGAT1 [3]) [µM]	IC50 (mGAT4) [µM]	inhibition at 1 µM ([1]; inhibitor concentration 1 μM, read-out: hBuChE % inh.) [%]
O[C@H](CNCc1ccccc1)[C@H](Cc1ccccc1)NC1c2ccccc2-c2ccccc21 [Compound 1]	9.77 ± 1.82	0.63 ± 0.02	< 10	7.08 ± 1.15	0.2	49	11	7.76 ± 1.99	–
COc1ccccc1CNC[C@H](O)[C@H](Cc1ccccc1)NC1c2ccccc2-c2ccccc21 [Compound 2]	13.2	0.28 ± 0.01	< 10	–	0.27 ± 0.01	33.9	6.31 ± 1.02	6.17 ± 0.57	–
COc1cccc(CNC[C@H](O)[C@H](Cc2ccccc2)NC2c3ccccc3-c3ccccc32)c1 [Compound 3]	12	2.2 ± 0.1	< 10	–	–	30.9	7.41 ± 0.34	7.08 ± 0.49	67.7
